Source: BindingDB's records for doi:10.1016/S0960-894X(00)80098-0 (1993)

experiment: Tested for the NMDA antagonist activity using a functional assay, by protection of cultured hippocampus neurons from the toxic effects of extracellularly applied glutamate

Point of comparison: C[C@@H]([C@H](O)c1ccc2c(c1)CC(=O)N2)N1CCC(Cc2ccccc2)CC1 [5-[(1R,2S)-2-(4-Benzyl-piperidin-1-yl)-1-hydroxy-propyl]-1,3-dihydro-indol-2-one], IC50 231 nM. Against it:
- O=C1Cc2cc(C(O)CN3CCC(Cc4ccc(F)cc4)CC3)ccc2N1 (stereo not given) [5-{2-[4-(4-Fluoro-benzyl)-piperidin-1-yl]-1-hydroxy-ethyl}-1,3-dihydro-indol-2-one] — 2.6-fold higher, 600 nM
- OC(CN1CCC(Cc2ccc(F)cc2)CC1)c1ccc(Cl)cc1 (stereo not given) — 4.3-fold higher, 1000 nM
- C[C@@H]([C@@H](O)c1ccc2c(c1)CC(=O)N2)N1CCC(c2ccccc2)CC1 [5-[(1S,2S)-1-Hydroxy-2-(4-phenyl-piperidin-1-yl)-propyl]-1,3-dihydro-indol-2-one] — 5.8-fold lower, 40 nM
- C[C@@H]([C@@H](O)c1ccc2c(c1)CC(=O)N2)N1CCC(Cc2ccccc2)CC1 [5-[(1S,2S)-2-(4-Benzyl-piperidin-1-yl)-1-hydroxy-propyl]-1,3-dihydro-indol-2-one] — 2.1-fold lower, 111 nM
